Test results from patent publication US20060183778A1, “Osteogenesis-promotion enhancer and method of screening the same” (priority 2003, published 2006).

How the values were obtained:
Type in all cases: cell-based
C2C12 cells [1] = experiment: Test Example 4: influence of serum (FBS) concentration on ALP activity of C2C12 cells; conditions: compound A 1 μM, rhBMP-4 50 ng/ml, FBS 2.5%, 5%, 10% or 20%, 9 days
Method: After the respective cells were cultured for 9 days, a degree of progression of bone differentiation was examined by staining with an alkaline phosphatase (ALP) staining kit #85-3R (Sigma). […] Regarding the respective cells, the ALP activity was measured in the same manner as in Test Example 1.

C2C12 cells [2] = experiment: Test Example 1: bone differentiation of C2C12 cells, alkaline phosphatase (ALP) staining and ALP activity; conditions: 9 days
Method: After the respective cells were cultured for 9 days, a degree of progression of bone differentiation was examined by staining with an alkaline phosphatase (ALP) staining kit #85-3R (Sigma). Quantitative analysis of an ALP activity was conducted according to the Fujii et al. method (e.g., see Fujii M et al, “Mol Biol Cell.” published by American Society for Cell Biology (U.S.A.), 1999, vol. 10, p. 3801-3813] by using a Sigma Fast p-nitrophenyl phosphate tablet set. A protein concentration of each extract was measured by a DC protein assay (Bio-Rad) using a bovine serum albumin as a standard substance.

[3] = test system: Human mesenchymal stem cells (hMSCs); experiment: Test Example 2: ALP activity of human mesenchymal stem cells; conditions: serum-free medium, compound A 1 μM with rhBMP-4 50 ng/ml
Method: After the respective cells were cultured for 9 days, a degree of progression of bone differentiation was examined by staining with an alkaline phosphatase (ALP) staining kit #85-3R (Sigma). […] Quantitative analysis of an ALP activity was conducted in the same manner as in Test Example 1. Accumulation of calcium was measured through visualization by the von Kossa method. That is, the respective cells were immobilized with a phosphate buffered saline (PBS) containing 3% glutaraldehyde, and washed with PBS and with distilled water. The immobilized cells were reacted with 2.5% silver nitrate for 60 minutes while applying light, then washed, and developed with 0.5% hydroquinone for 2 minutes. Excess silver was washed away with a 5% sodium thiosulfate solution.

[4] = test system: Human mesenchymal stem cells (hMSCs); experiment: Test Example 2: calcium accumulation of human mesenchymal stem cells by the von Kossa method; conditions: serum-free medium, compound A 1 μM with rhBMP-4 50 ng/ml
Method: Quantitative analysis of an ALP activity was conducted in the same manner as in Test Example 1. Accumulation of calcium was measured through visualization by the von Kossa method. That is, the respective cells were immobilized with a phosphate buffered saline (PBS) containing 3% glutaraldehyde, and washed with PBS and with distilled water. The immobilized cells were reacted with 2.5% silver nitrate for 60 minutes while applying light, then washed, and developed with 0.5% hydroquinone for 2 minutes. Excess silver was washed away with a 5% sodium thiosulfate solution.

For NC(=O)c1ccc(-c2nc(-c3ccc4c(c3)OCO4)c(-c3ccccn3)[nH]2)cc1 [compound A, 4-(4-benzo[1,3]dioxol-5-yl-5-pyridin-2-yl-1H-imidazol-2-yl)benzamide], the “activity to enhance the acceleration of osteogenesis (ALP staining / ALP activity) as a function of FBS concentration” value (C2C12 cells [1]) was “decreased with the increase in FBS concentration”, the “activity of accelerating bone differentiation by stimulation of rhBMP-4 (ALP staining / ALP activity)” value (C2C12 cells [2]; compound A 1 μM with rhBMP-4 50 ng/ml, 5% fetal bovine serum) was “enhanced” and the “activity of accelerating bone differentiation of C2C12 cells (ALP staining)” value (C2C12 cells [2]; compound A (1 μM) alone, without rhBMP-4, 5% fetal bovine serum) was “not observed”. For the same compound, the “increase in ALP activity induced with rhBMP-4” value [3] was “further enhanced” and the “calcium accumulation induced with rhBMP-4 (von Kossa staining)” value [4] was “further enhanced”.
